Data on five compounds can be found in ChEMBL document CHEMBL3045723, “Synthesis of novel 3-(5-sulfanyl-1,3,4-oxadiazol-2-yl)-2H-chromen-2-one condensed s-triazinyl piperazines and piperidines as antimicrobial agents” (2012).

Converted amounts (≈) assume the structure as drawn.

The subject of assay [1] is Candida albicans. The assay can be described thus: Antifungal activity against Candida albicans MTCC 183 after 48 hr. It is filed as functional. The following applies: MTCC 183, 48 h.
Assay [2] has as its system Aspergillus niger. The assay can be described thus: Antifungal activity against Aspergillus niger MTCC 282 after 48 hr. It is filed as functional. The following applies: MTCC 282, 48 h.
Assay [3] deals with Candida albicans. Nature of the assay: Antifungal activity against Candida albicans MTCC 183 after 24 hr by agar disk diffusion test. The class given is functional. (Agar diffusion results depend on both activity and mobility in agar.)
The subject of assay [4] is Aspergillus niger. The assay can be described thus: Antifungal activity against Aspergillus niger MTCC 282 after 24 hr by agar disk diffusion test. The class given is functional.
Assay [5] concerns Shigella flexneri. Nature of the assay: Antibacterial activity against Shigella flexneri after 24 hr. The class given is functional.
The subject of assay [6] is Proteus vulgaris. Nature of the assay: Antibacterial activity against Proteus vulgaris MTCC 1771 after 24 hr. As to conditions: MTCC 1771, 24 h. The class given is functional.
Assay [7] concerns Salmonella typhi. Nature of the assay: Antibacterial activity against Salmonella enterica subsp. enterica serovar Typhi MTCC 733 after 24 hr. The class given is functional. The following applies: MTCC 733, 24 h.
In assay [8] the test system is Shigella flexneri. Nature of the assay: Antibacterial activity against Shigella flexneri after 24 hr by agar disk diffusion test. It is filed as functional.
Assay [9] has as its system Proteus vulgaris. The assay can be described thus: Antibacterial activity against Proteus vulgaris MTCC 1771 after 24 hr by agar disk diffusion test. The class given is functional.
Assay [10] relates to Salmonella typhi. The assay can be described thus: Antibacterial activity against Salmonella enterica subsp. enterica serovar Typhi MTCC 733 after 24 hr by agar disk diffusion test. It is filed as functional.
Assay [11] has as its system Klebsiella pneumoniae. The assay can be described thus: Antibacterial activity against Klebsiella pneumoniae MTCC 109 after 24 hr by agar disk diffusion test. The class given is functional.
Assay [12] relates to Pseudomonas aeruginosa. Nature of the assay: Antibacterial activity against Pseudomonas aeruginosa MTCC 741 after 24 hr by agar disk diffusion test. It is filed as functional.
The subject of assay [13] is Escherichia coli. Nature of the assay: Antibacterial activity against Escherichia coli MTCC 739 after 24 hr by agar disk diffusion test. The class given is functional.
In assay [14] the test system is Bacillus cereus. Nature of the assay: Antibacterial activity against Bacillus cereus MTCC 619 after 24 hr by agar disk diffusion test. It is filed as functional.
The test system of assay [15] is Staphylococcus aureus. Nature of the assay: Antibacterial activity against Staphylococcus aureus MTCC 96 after 24 hr by agar disk diffusion test. It is filed as functional.
Assay [16] deals with Klebsiella pneumoniae. The assay can be described thus: Antibacterial activity against Klebsiella pneumoniae MTCC 109 after 24 hr. It is filed as functional. As to conditions: MTCC 109, 24 h.
Assay [17] concerns Pseudomonas aeruginosa. The assay can be described thus: Antibacterial activity against Pseudomonas aeruginosa MTCC 741. The class given is functional.
In assay [18] the test system is Escherichia coli. Nature of the assay: Antibacterial activity against Escherichia coli MTCC 739 after 24 hr. The class given is functional. The following applies: MTCC 739, 24 h.
Assay [19] deals with Bacillus cereus. The assay can be described thus: Antibacterial activity against Bacillus cereus MTCC 619 after 24 hr. The class given is functional. As to conditions: MTCC 619, 24 h.
Assay [20] has as its system Staphylococcus aureus. Nature of the assay: Antibacterial activity against Staphylococcus aureus MTCC 96 after 24 hr. As to conditions: MTCC 96, 24 h. The class given is functional.
For assay [21], the system named is Bacillus cereus. The assay can be described thus: Antibacterial activity against Bacillus cereus MTCC 619 at 100 ug/disk after 24 hr by agar disk diffusion test. The following applies: MTCC 619, 24 h, read-out: IZ. It is filed as functional.
Assay [22] concerns Staphylococcus aureus. Nature of the assay: Antibacterial activity against Staphylococcus aureus MTCC 96 at 100 ug/disc after 24 hr by agar disk diffusion test. The following applies: MTCC 96, 24 h, read-out: IZ.
For assay [23], the system named is Shigella flexneri. Nature of the assay: Antibacterial activity against Shigella flexneri at 100 ug/disc after 24 hr by agar disk diffusion test. The class given is functional. The following applies: read-out: IZ.
Assay [24] has as its system Proteus vulgaris. The assay can be described thus: Antibacterial activity against Proteus vulgaris MTCC 1771 at 100 ug/disk after 24 hr by agar disk diffusion test. The following applies: MTCC 1771, 24 h, read-out: IZ. It is filed as functional.
Assay [25] relates to Salmonella typhi. Nature of the assay: Antibacterial activity against Salmonella enterica subsp. enterica serovar Typhi MTCC 733 at 100 ug/disk after 24 hr by agar disk diffusion test. The class given is functional. As to conditions: MTCC 733, 24 h, read-out: IZ.
The test system of assay [26] is Pseudomonas aeruginosa. Nature of the assay: microbe, parasite or virus in culture. As to conditions: MTCC 741, 24 h, read-out: IZ.
Description: Antibacterial activity against Pseudomonas aeruginosa MTCC 741 at 100 ug/disk after 24 hr by agar disk diffusion test
Assay [27] deals with Escherichia coli. The assay can be described thus: microbe, parasite or virus in culture. As to conditions: MTCC 739, 24 h, read-out: IZ.
Description: Antibacterial activity against Escherichia coli MTCC 739 at 100 ug/disk after 24 hr by agar disk diffusion test
Assay [28] relates to Klebsiella pneumoniae. The assay can be described thus: microbe, parasite or virus in culture. The following applies: MTCC 109, 24 h, read-out: IZ.
Description: Antibacterial activity against Klebsiella pneumoniae MTCC 109 at 100 ug/disk after 24 hr by agar disk diffusion test
The subject of assay [29] is Candida albicans. The assay can be described thus: Antifungal activity against Candida albicans MTCC 183 at 100 ug/disk after 24 hr by agar disk diffusion test. The class given is functional. As to conditions: MTCC 183, 24 h, read-out: IZ.
Assay [30] has as its system Aspergillus niger. The assay can be described thus: Antifungal activity against Aspergillus niger MTCC 282 at 100 ug/disk after 24 hr by agar disk diffusion test. The class given is functional. The following applies: MTCC 282, 24 h, read-out: IZ.

Take `CN1CCN(c2nc(Oc3cccc4cccnc34)nc(Sc3nnc(-c4cc5ccccc5oc4=O)o3)n2)CC1`: the MIC against Candida albicans [1], in the assay on Aspergillus niger [2], with Shigella flexneri [5], in the assay with Proteus vulgaris [6], in the assay on Salmonella typhi [7] and in the assay with Klebsiella pneumoniae [16] was 100 µg/mL (≈ 176 µM) throughout. For the same compound, the MIC with Pseudomonas aeruginosa [17], with Escherichia coli [18], in the assay on Bacillus cereus [19] and in the assay on Staphylococcus aureus [20] was 100 µg/mL (≈ 176 µM) throughout. Moreover, the “inhibition zone (IZ)” value in the assay with Candida albicans [3] is listed as 11 mm; in the assay on Aspergillus niger [4], below 10 mm; with Shigella flexneri [8], 18 mm; in the assay on Proteus vulgaris [9], 11 mm; with Salmonella typhi [10], 16 mm; with Klebsiella pneumoniae [11] it was 12 mm. The “inhibition zone (IZ)” value with Pseudomonas aeruginosa [12] is 19 mm; in the assay with Escherichia coli [13] it was 12 mm; in the assay with Bacillus cereus [14], below 10 mm; in the assay with Staphylococcus aureus [15], 13 mm.

`CCN1CCN(c2nc(Oc3cccc4cccnc34)nc(Sc3nnc(-c4cc5ccccc5oc4=O)o3)n2)CC1`: the MIC in the assay on Candida albicans [1], in the assay on Aspergillus niger [2], against Shigella flexneri [5], in the assay on Proteus vulgaris [6], against Salmonella typhi [7] and with Klebsiella pneumoniae [16] was 100 µg/mL (≈ 172 µM) throughout. Further, the MIC with Pseudomonas aeruginosa [17], in the assay on Escherichia coli [18], in the assay with Bacillus cereus [19] and against Staphylococcus aureus [20] was 100 µg/mL (≈ 172 µM) in each case. In addition, the “inhibition zone (IZ)” value in the assay with Candida albicans [3] is recorded as 13 mm; in the assay on Aspergillus niger [4], below 10 mm; in the assay on Shigella flexneri [8], 20 mm; in the assay on Proteus vulgaris [9], 12 mm; with Salmonella typhi [10], 16 mm; in the assay on Klebsiella pneumoniae [11], 14 mm. Moreover, the “inhibition zone (IZ)” value in the assay on Pseudomonas aeruginosa [12] was found to be 18 mm; in the assay on Escherichia coli [13], 16 mm; in the assay with Bacillus cereus [14], 13 mm; in the assay with Staphylococcus aureus [15] it was 15 mm.

In the case of `O=c1oc2ccccc2cc1-c1nnc(Sc2nc(Oc3cccc4cccnc34)nc(N3CCN(c4cccc(Cl)c4)CC3)n2)o1`, the MIC with Candida albicans [1] is 50 µg/mL (≈ 75.4 µM); against Aspergillus niger [2], 100 µg/mL (≈ 151 µM); with Shigella flexneri [5], 100 µg/mL (≈ 151 µM); against Proteus vulgaris [6] it was 100 µg/mL (≈ 151 µM); against Salmonella typhi [7], 100 µg/mL (≈ 151 µM); in the assay with Klebsiella pneumoniae [16] it was 100 µg/mL (≈ 151 µM). Moreover, the MIC worked out at 100 µg/mL (≈ 151 µM) against Pseudomonas aeruginosa [17], 25 µg/mL (≈ 37.7 µM) against Escherichia coli [18], 100 µg/mL (≈ 151 µM) in the assay on Bacillus cereus [19] and 100 µg/mL (≈ 151 µM) against Staphylococcus aureus [20]. Besides, the “inhibition zone (IZ)” value in the assay on Candida albicans [3] was 20 mm; in the assay with Aspergillus niger [4] it was 20 mm; in the assay on Shigella flexneri [8] it was 19 mm; in the assay with Proteus vulgaris [9], 19 mm; with Salmonella typhi [10] it was 17 mm; with Klebsiella pneumoniae [11], 15 mm. Moreover, the “inhibition zone (IZ)” value was 14 mm in the assay with Pseudomonas aeruginosa [12], 25 mm in the assay on Escherichia coli [13], 17 mm in the assay with Bacillus cereus [14] and 17 mm in the assay on Staphylococcus aureus [15].

Turning to `O=C(O)c1cn(C2CC2)c2cc(N3CCNCC3)c(F)cc2c1=O` [CIPROFLOXACIN], the MIC in the assay with Shigella flexneri [5] is 1.56 µg/mL (≈ 4.71 µM); in the assay on Proteus vulgaris [6], 0.39 µg/mL (≈ 1.18 µM); against Salmonella typhi [7] it was 0.39 µg/mL (≈ 1.18 µM); with Klebsiella pneumoniae [16], 0.78 µg/mL (≈ 2.35 µM); with Pseudomonas aeruginosa [17] it was 0.78 µg/mL (≈ 2.35 µM); with Bacillus cereus [19], 0.39 µg/mL (≈ 1.18 µM). The compound further yielded an MIC with Staphylococcus aureus [20] of 1.56 µg/mL (≈ 4.71 µM). The zone of inhibition at 100 µg/disc in the assay on Bacillus cereus [21] was 31 mm; in the assay with Staphylococcus aureus [22], 30 mm; in the assay with Shigella flexneri [23], 32 mm; in the assay with Proteus vulgaris [24], 31 mm; in the assay with Salmonella typhi [25], 30 mm; in the assay on Pseudomonas aeruginosa [26], 33 mm. Also, the zone of inhibition at 100 µg/disc came out at 32 mm with Escherichia coli [27] and 33 mm in the assay on Klebsiella pneumoniae [28].

As to `CC(=O)N1CCN(c2ccc(OCC3COC(Cn4ccnc4)(c4ccc(Cl)cc4Cl)O3)cc2)CC1` (centres undefined) [KETOCONAZOLE], the MIC in the assay with Candida albicans [1] and against Aspergillus niger [2] was 1.56 µg/mL (≈ 2.94 µM) in each case. For the same compound, the zone of inhibition at 100 µg/disc in the assay with Candida albicans [29] turned out to be 33 mm; in the assay on Aspergillus niger [30] it was 30 mm.

What is called MIC is the least concentration at which growth counts as inhibited. Lower therefore signals inhibition by little substance.
